From patent publication US12589111B2, “Pt(IV) chemotherapeutic prodrug and controlled release thereof for treatment of tumors” (PEKING UNIVERSITY, priority 2020, dated 2026)

system: not listed separately; assay: Ligand release of Pt(IV) complex 1 in different solutions after X-ray irradiation; assay type: physicochemical; conditions: 100 μM in complete fetal bovine serum (FBS)
Procedure: 2.5 Detection of Ligand Release of Pt(IV) Complex 1 in Different Solutions
A 10 mM stock solution of Pt(IV) complex 1 was prepared, and diluted to 100 μM in H2O. PBS, 5 mM Tyr, Trp, DMEM and CM (complete medium), FBS solution. After X-ray irradiation, 200 μL of ACN was added to each solution. The mixture was centrifuged, and the supernatant was then collected. The operation was repeated 2 more times, and the final concentration was ⅛ of the original concentration. Ligand release was detected by UPLC-MS and quantified by a standard curve of coumarin.

Row | Structure (SMILES) | reaction yield of ligand release
1 | CC(=O)[O][Pt]([Cl])([Cl])[O]C(C)=O.N.N [Pt(IV) complex 1] | not much different from that in water

same assay, conditions: 100 μM; PBS, 5 mM Tyr, 5 mM Trp, DMEM, CM; X-ray, UPLC-MS

Row | Structure (SMILES) | release of axial ligands
2 | CC(=O)[O][Pt]([Cl])([Cl])[O]C(C)=O.N.N [Pt(IV) complex 1] | achieved in all of the above solutions

system: HCT116, HT29, LoVo and Ls513 (human colorectal cancer cell lines); assay: Cytotoxicity to Oxaliplatin-sensitive cell lines; assay type: cell-based; conditions: not given

Row | Structure (SMILES) | IC50
3 | O=C1[O][Pt]2([NH][C@@H]3CCCC[C@H]3[NH]2)[O]C1=O [Oxaliplatin] | about submicromolar level

system: not listed separately; assay: Release of the corresponding platinum drug of Pt(IV)-(Suc)2 after γ-ray irradiation; assay type: physicochemical; conditions: deoxygenated, 60Co γ-rays; UPLC-MS, 195Pt NMR
Procedure: 2.6 Detection of the Release of the Corresponding Platinum Drug of Pt(IV)-(Suc)2
Pt(IV)-(Suc)2 was dissolved in 1 mL of deuterium water ([…]), and the mixture was adjusted to a pH of 7 with NaOH. After deoxygenation, the solution was exposed to 40 kGy γ-ray irradiation (^60Co source, 200 Gy/min, 200 min).
Determination of product by UPLC-MS (FIG. 3, b c)
After deoxygenation, the solution was exposed to 1 kGy γ-ray irradiation (^60Co source, 100 Gy/min, 10 min).

Row | Structure (SMILES) | product released by γ-ray irradiation
4 | N.N.O=C(O)CCC(=O)[O][Pt]([Cl])([Cl])[O]C(=O)CCC(=O)O [cisPt(IV)-(Suc)2] | release the corresponding Pt(II) drugs
5 | [NH2][Pt]1([NH2])([O]C(=O)CCC(=O)O)([O]C(=O)CCC(=O)O)[O]C(=O)C2(CCC2)C(=O)[O]1 [carboPt(IV)-(Suc)2] | release the corresponding Pt(II) drugs
6 | NC1CCCCC1N.O=C(O)CCC(=O)[O][Pt]1([O]C(=O)CCC(=O)O)[O]C(=O)C(=O)[O]1 [oxaliPt(IV)-(Suc)2] | released product was oxaliplatin

system: healthy mice; assay: not given; conditions: 3 μmol/kg
Procedure: In order to find the optimal dosage, we evaluated the effect of different doses of Oxaliplatin and prodrug on the health of healthy mice. In the same dosing way as in the treatment, the mice were dosed every third day, and then the body weight curve was recorded. […] Then ICP-MS was used to detect the concentration of the platinum drug in blood, tumor, liver and kidney respectively.
FIGS. 5 e-h show radiotherapy-driven release of Oxaliplatin for tumor treatment (n=6 mice per group). e, Tumor volume in individual mouse. f, Mean volume of tumors. The prodrug was injected intravenously for a total of 4 injections at a dose of 30 μmol/kg. One hour after intravenous injection, the tumor site in the irradiation group was irradiated with 4 Gy X-rays. Tumor volume in each group was measured every two days for 40 days. g, Survival curves of mice. According to the guidelines of Peking University Animal Ethics Committee, mice were sacrificed when the tumor volume reached 1500 mm^3. h, Body weight curves of mice.

Row | Structure (SMILES) | side effects from long-term survival and body weight curves
7 | O=C1[O][Pt]2([NH][C@@H]3CCCC[C@H]3[NH]2)[O]C1=O [Oxaliplatin] | no apparent side effects

same assay, conditions: 3 μmol/kg, dosed every third day

Row | Structure (SMILES) | body weight of mice
8 | O=C1[O][Pt]2([NH][C@@H]3CCCC[C@H]3[NH]2)[O]C1=O [Oxaliplatin] | did not reduce the body weight

same assay, conditions: 30 μmol/kg, dosed every third day

Row | Structure (SMILES) | body weight of mice
9 | O=C1[O][Pt]2([NH][C@@H]3CCCC[C@H]3[NH]2)[O]C1=O [Oxaliplatin] | lost severe weight

same assay, conditions: more than 10 μmol/kg

Row | Structure (SMILES) | side effects (weight loss)
10 | O=C1[O][Pt]2([NH][C@@H]3CCCC[C@H]3[NH]2)[O]C1=O [Oxaliplatin] | significant side effects

same assay, conditions: nude mice, intravenous injection

Row | Structure (SMILES) | maximum tolerated dose
11 | O=C1[O][Pt]2([NH][C@@H]3CCCC[C@H]3[NH]2)[O]C1=O [Oxaliplatin] | about 3 μmol/kg

system: not listed separately; assay: Determination of release efficiency by UPLC-MS after X-ray irradiation; assay type: physicochemical; conditions: 10 μM in pure water, deoxygenated, 60 Gy X-ray (4 Gy/min, 15 min); released divalent platinum drug by UPLC-MS
Procedure: 2.7 Determination of Release Efficiency by UPLC-MS
Corresponding tetravalent platinum complexes (compounds 1-66) were dissolved in DMSO to obtain tetravalent platinum stock solutions (10 mM), and then diluted to 10 μM with pure water. After deoxygenation, the solution was subjected to 60 Gy X-ray irradiation (4 Gy/min, 15 min). The reaction crude product was analyzed by UPLC-MS, and the released product was determined to be the corresponding divalent platinum drug by UPLC-MS. The concentration of the divalent platinum drug was determined by the external standard curve of the platinum drug, and the release efficiency was calculated.

Row | Structure (SMILES) | Release efficiency [%]
12 | CC(=O)[O][Pt]([NH2])([NH2])([Cl])([Cl])[O]C(=O)CCCCCN1C(=O)C=CC1=O [Compound 3] | 80.3
13 | CN(C)CC(=O)[O][Pt]([NH2])([NH2])([Cl])([Cl])[O]C(=O)CCCc1ccc(I)cc1 [Compound 17] | 79.6
14 | CCCCCCCCCCCCCCCCNC(=O)[O][Pt]1([O]C(=O)CN(C)C)[O]C(=O)C(=O)[O]1.N[C@@H]1CCCC[C@H]1N [Compound 63] | 75.7
15 | CC(=O)[O][Pt]([NH2])([NH2])([Cl])([Cl])[O]C(=O)CN(C)C [Compound 16] | 71.9
16 | N.N.O=C(O)CCC(=O)[O][Pt]1([O]C(=O)CCCCCN2C(=O)C=CC2=O)[O]C(=O)C2(CCC2)C(=O)[O]1 [Compound 33] | 67.7
17 | N[C@@H]1CCCC[C@H]1N.O=C(O)CCC(=O)[O][Pt]1([O]C(=O)CCCCCN2C(=O)C=CC2=O)[O]C(=O)C(=O)[O]1 [Compound 55] | 81.9
18 | CC(=O)[O][Pt]([NH2])([NH2])([Cl])([Cl])[O]C(=O)CCCc1ccc(I)cc1 [Compound 2] | 85.7
19 | CCCCCCCCCCCCCCCCCCNC(=O)[O][Pt]([NH2])([NH2])([Cl])([Cl])[O]C(C)=O [Compound 5] | 73.9
20 | CCCCCCCCCCCCCCCCCCNC(=O)[O][Pt]1([O]C(=O)CCC(=O)O)[O]C(=O)C(=O)[O]1.N[C@@H]1CCCC[C@H]1N [Compound 57] | 76.3
21 | CCCCCCCCCCCCCCCCCCNC(=O)[O][Pt]1([O]C(=O)CN(C)C)[O]C(=O)C(=O)[O]1.N[C@@H]1CCCC[C@H]1N [Compound 64] | 82.2
22 | CCCCCCCCCCCCCCCCCC(=O)[O][Pt]1([O]C(=O)CCC(=O)O)[O]C(=O)C(=O)[O]1.N[C@@H]1CCCC[C@H]1N [Compound 59] | 82.0
23 | [NH2][Pt]([NH2])([Cl])([Cl])([O]C(=O)CCC(=O)O)[O]C(=O)CCC(=O)O [Compound 9] | 75.6
24 | CCCCCCCCCCCCCCCC(=O)[O][Pt]1([O]C(=O)CN(C)C)[O]C(=O)C(=O)[O]1.N[C@@H]1CCCC[C@H]1N [Compound 65] | 74.6
25 | CCCCCCCCCCCCCCCCNC(=O)[O][Pt]([NH2])([NH2])([Cl])([Cl])[O]C(=O)CN(C)C [Compound 19] | 78.5
26 | N[C@@H]1CCCC[C@H]1N.O=C(O)CCC(=O)[O][Pt]1([O]C(=O)CCCc2ccc(I)cc2)[O]C(=O)C(=O)[O]1 [Compound 54] | 75.3
27 | CC(=O)[O][Pt]([NH2])([NH2])([Cl])([Cl])[O]C(=O)CCC(=O)O [Compound 8] | 75.5
28 | CN(C)CC(=O)[O][Pt]1([O]C(=O)CCCc2ccc(I)cc2)[O]C(=O)C(=O)[O]1.N[C@@H]1CCCC[C@H]1N [Compound 61] | 73.7
29 | CCCCCCCCCCCCCCCCNC(=O)[O][Pt]1([NH2])([NH2])([O]C(C)=O)[O]C(=O)C2(CCC2)C(=O)[O]1 [Compound 26] | 69.4
30 | CN(C)CC(=O)[O][Pt]1([O]C(=O)CCCc2ccc(I)cc2)[O]C(=O)C2(CCC2)C(=O)[O]1.N.N [Compound 39] | 71.0

Row | Structure (SMILES) | Release efficiency [%]
31 | [NH2][Pt]([NH2])([Cl])([Cl])([O]C(=O)CCCCCN1C(=O)C=CC1=O)[O]C(=O)CCC(=O)O [Compound 11] | 73.9
32 | CCCCCCCCCCCCCCCCNC(=O)[O][Pt]([NH2])([NH2])([Cl])([Cl])[O]C(=O)CCC(=O)O [Compound 12] | 77.4
33 | CCCCCCCCCCCCCCCCCC(=O)[O][Pt]1([O]C(=O)CN(C)C)[O]C(=O)C(=O)[O]1.N[C@@H]1CCCC[C@H]1N [Compound 66] | 77.5
34 | CC(=O)[O][Pt]([NH2])([NH2])([Cl])([Cl])[O]C(C)=O [Compound 1] | 83.2
35 | CC(=O)[O][Pt]1([O]C(=O)CN(C)C)[O]C(=O)C(=O)[O]1.N[C@@H]1CCCC[C@H]1N [Compound 60] | 81.3
36 | CN(C)CC(=O)[O][Pt]([NH2])([NH2])([Cl])([Cl])[O]C(=O)CCCCCN1C(=O)C=CC1=O [Compound 18] | 73.5
37 | CCCCCCCCCCCCCCCCCCNC(=O)[O][Pt]([NH2])([NH2])([Cl])([Cl])[O]C(=O)CN(C)C [Compound 20] | 83.7
38 | CCCCCCCCCCCCCCCCNC(=O)[O][Pt]1([O]C(=O)CCC(=O)O)[O]C(=O)C(=O)[O]1.N[C@@H]1CCCC[C@H]1N [Compound 56] | 80.2
39 | CCCCCCCCCCCCCCCC(=O)[O][Pt]1([O]C(=O)CCC(=O)O)[O]C(=O)C(=O)[O]1.N[C@@H]1CCCC[C@H]1N [Compound 58] | 81.3
40 | CCCCCCCCCCCCCCCCCCNC(=O)[O][Pt]([NH2])([NH2])([Cl])([Cl])[O]C(=O)CCC(=O)O [Compound 13] | 82.7
41 | CN(C)CC(=O)[O][Pt]1([O]C(=O)CCCCCN2C(=O)C=CC2=O)[O]C(=O)C2(CCC2)C(=O)[O]1.N.N [Compound 40] | 68.9
42 | N[C@@H]1CCCC[C@H]1N.O=C(O)CCC(=O)[O][Pt]1([O]C(=O)CCC(=O)O)[O]C(=O)C(=O)[O]1 [Compound 53] | 76.7
43 | CCCCCCCCCCCCCCCCNC(=O)[O][Pt]([NH2])([NH2])([Cl])([Cl])[O]C(C)=O [Compound 4] | 79.5
44 | N.N.O=C(O)CCC(=O)[O][Pt]1([O]C(=O)CCCc2ccc(I)cc2)[O]C(=O)C2(CCC2)C(=O)[O]1 [Compound 32] | 64.6
45 | CCCCCCCCCCCCCCCCCCNC(=O)[O][Pt]1([O]C(=O)CCC(=O)O)[O]C(=O)C2(CCC2)C(=O)[O]1.N.N [Compound 35] | 73.5
46 | CCCCCCCCCCCCCCCCCCNC(=O)[O][Pt]1([O]C(=O)CN(C)C)[O]C(=O)C2(CCC2)C(=O)[O]1.N.N [Compound 42] | 66.3
47 | CN(C)CC(=O)[O][Pt]1([O]C(=O)CCCCCN2C(=O)C=CC2=O)[O]C(=O)C(=O)[O]1.N[C@@H]1CCCC[C@H]1N [Compound 62] | 74.5
48 | N.N.O=C(O)CCC(=O)[O][Pt]1([O]C(=O)CCC(=O)O)[O]C(=O)C2(CCC2)C(=O)[O]1 [Compound 31] | 65.9
49 | [NH2][Pt]([NH2])([Cl])([Cl])([O]C(=O)CCCc1ccc(I)cc1)[O]C(=O)CCC(=O)O [Compound 10] | 76.7
